Where two headings read alike, the source gives them in different places.
What was measured:
[1] = system: human neutrophils (PAF-induced bead adhesion); assay: PAF-induced adhesion of human neutrophils to latex beads; format: cell-based; conditions: Neutrophil, albumin-coated latex beads
Protocol: (§1) The cellular responses studied include (1) PAF-induced release of preloaded, radiolabeled serotonin from rabbit platelets, (2) PAF-induced degranulation (release of myeloperoxidase) from purified human nuetrophils and (3) PAF-induced adhesion of human neutrophils to latex beads. Each putative antagonist was tested at 30 μM for its effect on each response. Selected compounds were tested in a concentration-response fashion.
Latex bead suspension (0.6 ml; 10% aqueous suspension; particle diameter=1u) is pipeted into a 1.5 ml eppendorf centrifuge tube. The beads are pelleted by centrifugation, the supernatant is discarded and the beads are washed 2 times with 1 ml 0.9% saline. To the pelleted beads is added 0.5 ml 20 mg/ml human serum albunim (HSA) in Krebs-Ringer buffer.
Allow bed-albumin mixture to sit at room temperature for 10 minutes, centrifuge for 1 minute and remove the supernatant, and wash albumin-coated beads 3 times with saline. Resuspend the beads in 1 ml of Krebs-Ringer.
Human neutrophils are prepared as described for the neutrophil degranulation assay and 10^7 cells are added to 0.3 ml of Krebs-Ringerin the presence and absence of PAF and putative antagonist and are incubated at 37° for an appropriate period of time.
The albumin-coated beads are then added in 0.05 ml to give a final bead concentration of 1% v/v, resulting in a bead to neutrophil ratio of 100:1. The tubes containing cells and beads are then placed in an agitating water bath at 37° C. and 120 oscillation per minute for 10 minutes. The reaction is stopped by adding an equal volume of 2.5% glutaraldehyde in saline. The reaction tubes are allowed to stand at room temperature for 30 minutes. The cells are then washed 3 times (with centrifugation at 1000 rpm for 5 minutes) with saline to remove the unadhered latex beads and resuspended in 0.3 ml saline.
Wet mounts are prepared and adherence is examined by light microscopy at 400x. […] Activity of the antagonists is expressed as the percent inhibition of PAF-induced adherence.

[2] = system: human neutrophils (PAF-induced degranulation); assay: PAF-induced degranulation (myeloperoxidase release) of human neutrophils; format: cell-based; conditions: Neutrophil
Protocol: as §1
Neutrophils are isolated from human venous blood via a two-step sedimentation procedure, and contaminating erythrocytes are selectively lysed. The neutrophils were preincubated in 0.25% Hanks buffer containing bovine serum albumin (BSA) with 5 ug Cytochalasin B/ ml cells for 5 minutes at 37° C. Neutrophils (4×10^6) are added to stimuli (PAF or buffer control) in the presence and absence of antagonist in Krebs-Ringer buffer to a final volume of 1.0 ml, and incubated at 37° C. for appropriate periods of time. At the end of the reaction period the neutrophils are pelleted by centrifugation at 3000 rpm for 5 minutes at 4° C.
Aliquots (0.2 ml) of the supernatants are added to polysyrene tubes to which are added the following: 0.6 ml)>25% Hanks BSA, 0.5 ml MPO buffer (0.2 M NaPO4, pH 6.2) and to start the color reaction 0.2 ml of a 1:1 v/v 0.05% H2 O2 :1.25 mg/ml dimethoxybenzidine (DMB). The reaction is allowed to run at room temperature for 15 minutes and is stopped by the addition of 0.05 ml 2% sodium azide. The developed color is quantitated in a spectrophotometer at 460 nm. The amount of myeloperoxidase (MPO) released by PAF stimulation can thus be determined. In order to determine the total amount of MPO in the cells an unstimulated control tube of neutrophils is lysed using 0.01 ml 10% Triton TX and the total MPO is determined via the color reaction and spectrophotometer reading. The activity of a given concentration of PAF is expressed as the percentage of the total MPO released. The activity of antagonists at a given concentration is expressed as a percentage of inhibition of PAF-induced MPO released at a single concentration of PAF.

[3] = system: rabbit platelets (PAF-induced serotonin release); assay: PAF-induced release of tritiated serotonin from rabbit platelets; format: cell-based, rabbit (New Zealand White); conditions: Oryctolagus cuniculus, Platelet; for inhibition at 30 µM: read-out: Platelet Serotonin Release % Inhibition at 30 uM, 30 uM; for IC50: read-out: Platelet Serotonin Release I50
Protocol: as §1
Blood is collected from the central ear artery of New Zealand White rabbits into a 1:7 volume of acid citrate dextrose. The blood is centrifuged at 1100 rpm for 20 minutes. The isolated platelet rich plasma (PRP) is then incubated at 37° C. for 30 minutes with 1 μCi^3 H-serotonin binoxalate per ml PRP. Labeled platelets are pelleted by centrifugation at 2800 rpm for 20 minutes. The platelets are then washed in Tyrodes gel buffer without calcium in the presence of 0.1 mM EGTA and again pelleted at 2800 rpm for 20 minutes. This wash process is repeated. The washed platelet pellet is resuspended in Tyrodes gel buffer without calcium and adjusted to a concentration of 1.25×10^9 platelets/ml, as determined from a standard curve of absorbance at 530 num vs platelet concentration.
Polystyrene reaction tubes containing various dilutions of PAF (for standard curve determination) or a single concentration of PAF with and without the subject antagonist in a 0.45 ml volume of Tyrodes gel buffer with calcium each receive a 0.05 ml aliquot of the paltelet preparation. After a 90 second incubation period at room temperature, the reaction is stopped by the addition of 0.02 ml of 9.25 % formaldehyde. The platelets are then pelleted by centrifugation at 2800 rpm for 15 minutes at 4° C.
Aliquots (0.1 ml) of the supernatants are added to 3 ml liquid scintillation fluid in polypropylene vials. The samples are then counted for radioactivity in a liquid scintillation counter. The platelets in one set of reaction tubes containing only buffer and labeled platelets are lysed using 0.01 ml 10% Triton TX, and the total reactivity is determined by liquid scintillation counting. The determined dpm represent the total radioactivity in the labelled platelets. The results for each determination are reported as the percentage release of the total radioactivity in the sample. The extent of PAF antagonist activity is expressed as the percent inhibition of ^3 H-serotonin release compared to that amount released by PAF alone.

[4] = Stability of free base solution on exposure to air (tlc); format: physicochemical; conditions: 1 h exposure to air
Protocol: 1-(3,4-Dimethoxybenzyl)-6-methyl-3,4-dihydroisoquinoline (D2). Amide D1 (24.7 g, 0.079 mol) and 850 ml of tetrachloroethane was distilled to remove 50 ml of solvent. This solution was added to a solution of 90 g (0.63 mol) of P2 O5 in HMDSO which was heated at 115°. The reaction mixture was heated at 155°-170° for 5 h at which time the reaction appeared complete by tlc. To the cooled reaction mixture was added over 1 h a solution of 100 g of NaOH in 1 l of water under nitrogen with stirring. The organic layer was separated and filtered through a pad of MgSO4. One-half of the tetrachloroethane solution was partially evaporated and […] hydrochloric acid (25 ml) wa added. The resulting mixture was evaporated to dryness. The residue was twice treated with EtOH (100 ml) and evaporated to dryness. The residue was washed with two 100 ml portions of ether and taken up to 100 ml of acetone and evaporated to give a foam. The foam was washed with ethyl acetate (60 ml) and dissolved in 75 ml of i-PrOH, treated with charcoal, filtered and boiled down to 50 ml. The solution deposited 3.4 g of 1-(3,4-dimethoxybenzyl)-6-methyl-3, 4-dihydroisoquinoline hydrochloride after storing overnight at 4°. Dilution of the mother liquor with ethyl acetate and ether gave another 2.9 g to raise the yield to 6.3 g (48% based on one-half of crude product purified).

PAF-induced edema = PAF-induced edema formation in rabbit skin; format: in vivo; conditions: for % Inhibition of PAF-induced edema: local intradermal, with PAF+PGE2, 30 minutes
Protocol: PAF (10^-9 moles/site) was mixed with […] (a vasodilator, 3×10^-10 moles/site) and injected intradermally in 0.1 ml volumes with six replicates per sample. After 30 minutes a cardiac blood sample was taken and the plasma perpared. The animal was then killed, the dorsal skin removed and injection sites were punched out. Skin samples were counted in a counter together with plasma samples and the amount of plasma leakage in skin sites expressed in terms of 1 μl plasma by comparing the skin radioactivity with that in 1 μl plasma.

SMILES | inhibition at 30 µM [1] [%] | inhibition at 30 µM [2] [%] | inhibition at 30 µM ([3]; PAF-induced, rabbit platelets) [%] | IC50 ([3]; PAF-induced, rabbit platelets) [µM] | further results
COc1ccc(C2=NCCc3cc(O)ccc32)cc1OC [Compound 12a, 1-(3,4-Dimethoxyphenyl)-6-hydroxy-3,4-dihydroisoquinoline] | 90 | 40 | 12 |  | 
COc1ccc(C2=NCCc3cc(OCCN(C)C)ccc32)cc1OC [Compound 12b] | 2 | 10 | 0 |  | 
COc1ccc(C2=NCCc3ccccc32)cc1OC [Compound A2, 1-(3,4-Dimethoxyphenyl)-3,4-dihydroisoquinoline] | 2 | 7 | 48 |  | 
COc1ccc(-c2nccc3ccccc23)cc1OC [Compound A3, 1-(3,4-dimethoxyphenyl) isoquinoline] | 2 | 38 | 80 |  | 
COc1ccc(C2=NCCc3cc(C)ccc32)cc1OC [Compound C2, 1-(3,4-Dimethoxyphenyl)-6-methyl-3,4-dihydroisoquinoline] | 10 | 16 |  |  | inhibition at 30 µM ([3]; lot 2): 0%; inhibition at 30 µM ([3]; lots 1 & 3): 38%
COc1ccc(-c2nccc3cc(C)ccc23)cc1OC [Compound C3, 1-(3,4-dimethoxyphenyl)-6-methylisoquinoline] | 30 | 78 | 100 |  | IC50 ([2]; Homo sapiens, read-out: PAF-Induced Neutrophil Degranulation I50): > 30 µM
COc1ccc(CC2=NCCc3cc(C)ccc32)cc1OC [Compound D2, 1-(3,4-Dimethoxybenzyl)-6-methyl-3,4-dihydroisoquinoline] | 23 | 17 | 70 | 5.6 | Decomposition of free base in solution by tlc [4]: extensive decomposition
COc1ccc(Cc2nccc3cc(C)ccc23)cc1OC [Compound D3, 1-(3,4-Dimethoxybenzyl)-6-methylisoquinoline] | 100 | 57 | 100 | 25 | 
COc1ccc(CCC2=NCCc3cc(C)ccc32)cc1OC [Compound E2] | 2 | 70 | 92 |  | 
COc1ccc(CCc2nccc3cc(C)ccc23)cc1OC [Compound E3, 1-[2-(3,4-Dimethoxyphenyl)ethyl]-6-methylisoquinoline] | 9 | 77 | 90 |  | 
COc1cc(C2=NCCc3cc(C)ccc32)cc(OC)c1OC [Compound F2, 1-(3,4,5-Trimethoxyphenyl)-6-methyl-3,4-dihydroisoquinoline] | 26 | 27 | 48 |  | 
COc1cc(-c2nccc3cc(C)ccc23)cc(OC)c1OC [Compound F3, 1-(3,4,5-Trimethoxyphenyl)-6-methylisoquinoline] | 87 | 60 | 89 |  | 
COc1cccc(C2=NCCc3cc(C)ccc32)c1 [Compound G2, 1-(3-Methoxyphenyl)-6-methyl-3,4-dihydroisoquinoline] | 42 | 14 | 100 | 20 | 
COc1ccc(C2=NCCc3cc(C)ccc32)cc1 [Compound H2, 1-(4-Methoxyphenyl)-6-methyl-3,4-dihydroisoquinoline] | 3 | 25 | 100 | 18 | 
COc1ccc(C2=NCCc3cc(OCc4ccccc4)ccc32)cc1OC [Compound I2, 1-(3,4-Dimethoxyphenyl)-6-benzyloxy-3,4-dihydroisoquinoline] | 10 | 72 | 100 | 12.5 | 
COc1ccc(Cc2nccc3cc(OCc4ccccn4)ccc23)cc1OC [Compound J3a, 1-(3,4-Dimethoxybenzyl)-6-(2-pyridylmethyloxy) isoquinoline] | 12 | 70 | 88 | 0.8 | % Inhibition of PAF-induced edema (PAF-induced edema; 10^-7 moles/site): 62%; % Inhibition of PAF-induced edema (PAF-induced edema; 10^-8 moles/site): 30%; % Inhibition of PAF-induced edema (PAF-induced edema; 10^-9 moles/site): -7%; % Inhibition of PAF-induced edema (PAF-induced edema; 10^-10 moles/site): 2%
CCCCC[C@H](O)/C=C/[C@H]1[C@H](O)CC(=O)[C@@H]1C/C=C\CCCC(=O)O [PGE2, reference compound] |  |  |  |  | Edema formation in rabbit skin (response to agent alone) (PAF-induced edema; intradermal, alone, compared with saline): not much greater than seen with saline
